Measurements taken from patent publication US5670506A, “Halogen, isothiocyanate or azide substituted xanthines” (Cell Therapeutics, Inc., priority 1993, dated 1997).

Key:
[1] = test system: murine thymocytes; test: inhibition of murine thymocyte proliferation stimulated by ConA and IL-1α; format: cell-based, murine (Balb/C mice); conditions: FIG. 4, 4 days
Experimental: The drugs (inventive compounds) were added to the cells at the doses indicated two hours prior to activation with ConA and IL-1α. […] Background counts were less than 200 cpm. This in vitro assay is a model for immune suppression and treatment or prevention of autoimmune diseases.
A third assay measures an ability of an inventive compound to inhibit IL-2-induced proliferation of murine thymocytes. Thymus glands are obtained from 4-6 week old mice and plated as a single cell suspension into flat bottomed wells in RPMI 1640 medium supplemented with 10% fetal calf serum. The inventive compounds are added to appropriate wells and the cells are incubated for 1-2 hrs. Concanavilin A (ConA, 0.25 μg/ml) and IL-1 (20 ng/ml) are added and the plates are incubated for 4 days. Cell proliferation is determined as above. There are also variations for this assay that follow the same basic stimulation and measure inhibition of proliferation format. […]
This example illustrates the effect of CT1514, CT1525, CT1527, CT1529, CT1577, CT1583, CT1589, CT1595, CT2519, CT1205, CT1801 and CT1908 on inhibition of murine thymocyte proliferation stimulated by Concanavalin A (ConA) and interleukin-2 (IL-2) (FIG. 4). […] The cells were harvested and incorporated tritiated thymidine was determined in a liquid scintillation counter. […]

[2] = test system: TNF release from monocytes in whole blood; test: ex vivo human TNF model, LPS-mediated TNF release in whole blood; format: cell-based; conditions: FIG. 14
Experimental: (§1) This model adds LPS to whole blood (normal human volunteers) to trigger a dose-dependent synthesis and extracellular release of TNF according to Desch et al. (Lymphokine Res. 8:141, 1989). The ex vivo model examines whether LPS-mediated release of TNF from monocytes in whole blood can be block by an inventive compound.
An ex vivo human sepsis model is described in Desch et al., Lymphokine Res. 8:141, 1989 and in Ooi et al., J. Exp. Med. 174:649, 1991. Briefly, whole blood from humans is incubated with LPS (endotoxin). TNF released from cells (mostly from monocytes) is measured. The inventive compounds lower TNF levels as compared with untreated controls in this model.
as §1, with “This example illustrates a comparative experiment comparing CT1595, CT1529 and CT2519 in an ex vivo human TNF model described herein. This assay is a predictive model for treatment and prevention of septic shock and sepsis syndrome. This” for “This”

[3] = test system: Ras-transformed 3T3 cells (IL-1-induced signal transduction via the Type I IL-1 receptor); test: DAG and PA generated after stimulation of Ras-transformed 3T3 cells with IL-1β; format: cell-based; conditions: FIGS. 11 and 12, IL-1β stimulation
Source text: FIGS. 11 and 12 show the effects of CT1595 on the amount of DAG (diacylglycerol) (FIG. 11) and PA (Phosphatidic acid) (FIG. 12) generated at different times after stimulation of Ras-transformed 3T3 cells with IL-1β. CT1595 is a potent drug to inhibit enzyme activity that generates PA and then DAG by inhibiting IL-1-induced signal transduction, through this second messenger pathway, via the Type I IL-1 receptor. The inhibiting activity was not in a dose-response manner, indication that the IC50 concentration for inhibiting cellular second messenger signaling is probably below 500 nM.
One in vitro assay measures inhibition of the relevant enzymes lysophosphatidic acid acyltransferase (LPAAT) and phosphatidic acid phosphoryl hydrolase (PAPH). […] It is important to note that the assay method permits discrimination between various forms of PA and DAG so that those relevant to the pathway affected by the (R) or (S) compounds of the invention can be measured directly. […] Thus, the relevant unsaturated (non-arachidonic) PA and DAG subspecies may be detected. […]

SMILES: Cn1cnc2c1c(=O)n(CCCCC(=O)CCl)c(=O)n2C [CT1595, 1-(6-chloro-5-oxohexyl)-3,7-dimethylxanthine]
- inhibition of thymocyte proliferation [1]: most potent drugs
- block of LPS-mediated TNF release [2]: could block TNF release in a dose-dependent fashion
- inhibition of DAG and PA generation ([3]; in words): the overall signal is being significantly inhibited
- IC50 ([3]; Mus musculus, NIH3T3, "probably" below, read-out: IC50 for inhibiting cellular second messenger signaling): < 500 nM
